Common to all, as to type: cell-based
For assay [1], the target named is T1, vanilloid receptor 1 (VR1/TRPV1) of the rat species (Rattus norvegicus, UniProt O35433).
T1 construct: The spinal column is removed from decapitated rats; from tissue; host or cells: primary cells dissociated from rat dorsal root ganglia
In words: FLIPR Ca2+ influx assay on rat dorsal root ganglia cells (pharmacological method I). A digest of the protocol: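 Primary rat dorsal root ganglion cells loaded with 2 μM Fluo-4, Ca2+ influx read on FLIPR as peak fluorescence. Triplicates, at least 3 independent experiments.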

For another assay, the target named is T2, vanilloid receptor (VR1) (Homo sapiens, UniProt Q8NER1).
T2 construct: expressed in transfected cells; host or cells: CHO K1 cells (ECACC), stably transfected
T2 sequence (Q8NER1 whole entry): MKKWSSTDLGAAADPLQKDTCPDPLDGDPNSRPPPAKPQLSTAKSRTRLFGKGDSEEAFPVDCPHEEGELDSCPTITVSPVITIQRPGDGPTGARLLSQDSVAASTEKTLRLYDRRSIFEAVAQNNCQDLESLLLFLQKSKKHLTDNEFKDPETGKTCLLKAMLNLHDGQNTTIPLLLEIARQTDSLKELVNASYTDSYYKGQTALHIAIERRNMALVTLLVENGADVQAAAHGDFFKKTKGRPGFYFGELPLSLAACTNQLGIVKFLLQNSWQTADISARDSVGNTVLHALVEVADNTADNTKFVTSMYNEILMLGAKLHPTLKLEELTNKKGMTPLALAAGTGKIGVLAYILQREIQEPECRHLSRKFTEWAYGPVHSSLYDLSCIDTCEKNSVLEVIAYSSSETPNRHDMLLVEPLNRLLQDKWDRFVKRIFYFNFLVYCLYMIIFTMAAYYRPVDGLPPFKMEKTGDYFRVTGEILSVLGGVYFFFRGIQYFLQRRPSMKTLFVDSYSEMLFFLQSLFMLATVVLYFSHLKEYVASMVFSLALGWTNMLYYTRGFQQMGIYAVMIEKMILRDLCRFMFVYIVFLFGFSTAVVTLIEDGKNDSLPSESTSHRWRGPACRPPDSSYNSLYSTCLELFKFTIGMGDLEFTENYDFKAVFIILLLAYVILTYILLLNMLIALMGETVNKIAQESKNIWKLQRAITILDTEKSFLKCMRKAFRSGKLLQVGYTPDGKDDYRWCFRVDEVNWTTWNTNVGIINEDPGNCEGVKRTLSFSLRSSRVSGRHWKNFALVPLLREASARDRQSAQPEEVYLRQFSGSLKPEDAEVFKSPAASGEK
Briefly: FLIPR Ca2+ influx assay on CHO K1 cells transfected with the VR1 gene (pharmacological method II).

The target of a further assay is VR1/TRPV1 receptor (Homo sapiens, UniProt Q8NER1). In words: IC50 (human) after pH stimulus. The settings on record: for inhibition at 1 µM / inhibition at 10 µM: read-out: inhibition in percent, IC50 (human) after pH stimulus.
Chain of VR1/TRPV1 receptor (Q8NER1 whole entry): as above
Where [2] appears, read: table 4, capsaicin, read-out: Ki (rat) Cap.
Where [3] appears, read: table 4, capsaicin, read-out: Ki (human) Cap.
The mark [4] stands for this setting: Ki (rat) Cap., table 4, capsaicin.

Structures are written as SMILES. Read-outs that look alike come from different tables or passages of the source.

T1 sequence (O35433 whole entry): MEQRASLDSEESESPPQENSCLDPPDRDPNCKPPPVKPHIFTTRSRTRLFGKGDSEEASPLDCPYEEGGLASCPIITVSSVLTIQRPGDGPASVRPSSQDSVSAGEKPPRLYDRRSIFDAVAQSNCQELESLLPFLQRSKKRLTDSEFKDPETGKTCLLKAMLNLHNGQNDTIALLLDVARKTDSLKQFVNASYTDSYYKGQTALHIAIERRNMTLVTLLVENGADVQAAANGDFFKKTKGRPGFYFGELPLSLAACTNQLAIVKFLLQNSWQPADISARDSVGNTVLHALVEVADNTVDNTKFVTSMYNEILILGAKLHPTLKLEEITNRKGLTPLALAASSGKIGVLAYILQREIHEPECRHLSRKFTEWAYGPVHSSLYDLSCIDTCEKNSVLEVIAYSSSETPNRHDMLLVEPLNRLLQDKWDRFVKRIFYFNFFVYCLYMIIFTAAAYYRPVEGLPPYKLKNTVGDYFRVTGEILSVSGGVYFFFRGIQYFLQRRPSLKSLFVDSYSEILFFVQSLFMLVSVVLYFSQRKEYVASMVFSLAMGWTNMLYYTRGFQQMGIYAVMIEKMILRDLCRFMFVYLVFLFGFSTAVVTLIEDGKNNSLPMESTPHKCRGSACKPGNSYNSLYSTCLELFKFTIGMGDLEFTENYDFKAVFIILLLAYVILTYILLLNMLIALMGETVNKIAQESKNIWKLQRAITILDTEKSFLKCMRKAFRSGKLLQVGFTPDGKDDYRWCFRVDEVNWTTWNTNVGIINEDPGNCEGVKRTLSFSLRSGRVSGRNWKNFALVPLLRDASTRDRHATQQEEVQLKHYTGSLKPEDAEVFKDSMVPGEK

`Cc1ccc(COc2nc(C(F)(F)F)ccc2CNC(=O)C(C)c2ccc(NS(C)(=O)=O)c(F)c2)cc1` (stereo not drawn) [Example 172, 2-(3-fluoro-4-methylsulfonamido-phenyl)-N-[2-(4-methyl-benzyloxy)-6-trifluoromethyl-pyridin-3-ylmethyl]-propionamide]: the figures for the inhibition constant Ki (in assay [1] (setting [2]); at vanilloid receptor (VR1) (setting [3])) were 0.4 nM and 1.5 nM, respectively. It took 53 nM to reach half-maximal inhibition at VR1/TRPV1 receptor (table 4) (IC50).
For `CCCCCc1nc(C(F)(F)F)ccc1CNC(=O)C(C)c1ccc(NS(C)(=O)=O)c(F)c1` (stereo not drawn) [Example 142, 2-(3-fluoro-4-methylsulfonamido-phenyl)-N-(2-pentyl-6-trifluoromethyl-pyridin-3-ylmethyl)-propionamide], in that order: 1.2 nM, 1 nM and 8.9 nM.
For `CC(C(=O)NCc1ccc(C(F)(F)F)nc1N1CCN(c2ncccc2Cl)CC1)c1ccc(NS(C)(=O)=O)c(F)c1` (stereo not drawn) [Example 193, N-{2-[4-(3-chloro-pyridin-2-yl)-piperazin-1-yl]-6-trifluoromethyl-pyridin-3-ylmethyl}-2-(3-fluoro-4-methylsulfonamido-phenyl)-propionamide], the values for the Ki (in assay [1] (setting [2]); at vanilloid receptor (VR1) (setting [3])) were 3.2 nM and 2.1 nM, respectively. Also, the inhibition at 1 µM on VR1/TRPV1 receptor (@ 1 μM, ne = no effect) is 69%.
The corresponding values for `CCCCOc1nc(C(F)(F)F)ccc1CNC(=O)C(C)c1ccc(NS(C)(=O)=O)c(C)c1` (stereo not drawn) [Example 256, N-(2-butoxy-6-trifluoromethyl-pyridin-3-ylmethyl)-2-(4-methylsulfonamido-3-methyl-phenyl)-propionamide] are 0.3 nM, 0.6 nM and 59%.
On to `CC(C(=O)NCc1ccc(C(F)(F)F)nc1C=Cc1ccccc1)c1ccc(NS(C)(=O)=O)c(F)c1` (stereo not drawn) [Example 191, 2-(3-fluoro-4-(methylsulfonamido)phenyl)-N-((2-styryl-6-(trifluoromethyl)pyridin-3-yl)methyl)propanamide], for which the Ki in assay [1] (setting [2]) turned out to be 2 nM; at vanilloid receptor (VR1) (setting [3]) it was 2.2 nM. In addition, on VR1/TRPV1 receptor (table 4), half-maximal inhibition (IC50) was put at 85 nM.
For the compound `CC(C(=O)NCc1ccc(C(C)(C)C)nc1OC1CCCCC1)c1ccc(NS(C)(=O)=O)c(F)c1` (stereo not drawn) [Example 233, N-(6-tert-butyl-2-cyclohexyloxy-pyridin-3-ylmethyl)-2-(3-fluoro-4-methylsulfonamido-phenyl)-propionamide], the values for the Ki (in assay [1] (setting [2]); on vanilloid receptor (VR1) (setting [3])) were 1.4 nM and 2.5 nM, respectively. Moreover, the inhibition at 1 µM on VR1/TRPV1 receptor (@ 1 μM, ne = no effect) is 50%. In addition, the inhibition at 10 µM on VR1/TRPV1 receptor was 63%.
As for `CC(C(=O)NCc1ccc(C(F)(F)F)nc1N(C)C)c1ccc(NS(C)(=O)=O)c(F)c1` (stereo not drawn) [Example 85, N-(2-dimethylamino-6-trifluoromethyl-pyridin-3-ylmethyl)-2-(3-fluoro-4-methylsulfonamido-phenyl)-propionamide], the Ki came to 67.9 nM in assay [1] (setting [2]) and 19.1 nM on vanilloid receptor (VR1) (setting [3]). In addition, on VR1/TRPV1 receptor (table 4), half-maximal inhibition (IC50) was put at 2390 nM.
As for `CC(C)OC1CCN(c2nc(C(F)(F)F)ccc2CNC(=O)C(C)c2ccc(NS(C)(=O)=O)c(F)c2)CC1` (stereo not drawn) [Example 162, 2-(3-fluoro-4-methylsulfonamido-phenyl)-N-(4-isopropoxy-6′-trifluoromethyl-3,4,5,6-tetrahydro-2H-[1,2′]bipyridinyl-3′-ylmethyl)-propionamide], the Ki turned out to be 1.6 nM in assay [1] (setting [2]) and 3 nM on vanilloid receptor (VR1) (setting [3]). Also, at VR1/TRPV1 receptor (@ 1 μM, ne = no effect), the inhibition at 1 µM stood at 58%.
Take `Cc1cc(C(C)C(=O)NCc2ccc(C(F)(F)F)nc2N2CCC(C(F)(F)F)CC2)ccc1NS(C)(=O)=O` (stereo not drawn) [Example 195, N-(4,6′-bis-trifluoromethyl-3,4,5,6-tetrahydro-2H-[1,2′]bipyridinyl-3′-ylmethyl)-2-(4-methylsulfonamido-3-methyl-phenyl)-propionamide]: the Ki in assay [1] (setting [2]) amounted to 0.4 nM; at vanilloid receptor (VR1) (setting [3]), 1.1 nM. For the same compound, it took 61 nM to reach half-maximal inhibition at VR1/TRPV1 receptor (table 4) (IC50).
With `CCCN(CCC)c1nc(C(F)(F)Cl)ccc1CNC(=O)C(C)c1ccc(NS(C)(=O)=O)c(F)c1` (stereo not drawn) [Example 186, N-[6-(chloro-difluoro-methyl)-2-dipropylamino-pyridin-3-ylmethyl]-2-(3-fluoro-4-methylsulfonamido-phenyl)-propionamide], the values for the Ki (in assay [1] (setting [2]); on vanilloid receptor (VR1) (setting [3])) were 0.8 nM and 0.6 nM, respectively. This compound came in with an IC50 on VR1/TRPV1 receptor (table 4) of 37.6 nM.
On to `CC(C(=O)NCc1ccc(C(F)(F)F)nc1N1CCCC1)c1ccc(NS(C)(=O)=O)c(Cl)c1` (stereo not drawn) [Example 102, 2-(3-chloro-4-methylsulfonamido-phenyl)-N-(2-pyrrolidin-1-yl-6 trifluoromethyl-pyridin-3-ylmethyl)-propionamide], for which the Ki stood at 7.4 nM in assay [1] (setting [2]) and 4.2 nM on vanilloid receptor (VR1) (setting [3]). For the same compound, on VR1/TRPV1 receptor, the inhibition at 10 µM was determined as 18%.
As for `CCCCOc1nc(C(C)(C)C)ccc1CNC(=O)C(C)c1ccc(NS(C)(=O)=O)c(F)c1` (stereo not drawn) [Example 235, N-(2-butoxy-6-tert-butyl-pyridin-3-ylmethyl)-2-(3-fluoro-4-methylsulfonamido-phenyl)-propionamide], the inhibition constant Ki in assay [1] (setting [2]) was found to be 0.6 nM; at vanilloid receptor (VR1) (setting [3]), 0.9 nM. This compound also yielded a 50% inhibitory concentration (IC50) on VR1/TRPV1 receptor (table 4) of 55 nM.
For `C[C@H](C(=O)NCc1ccc(C(F)(F)F)nc1-c1ccc(F)c(Cl)c1)c1ccc(NS(C)(=O)=O)c(F)c1` [Example 120, (S)-N-[2-(3-chloro-4-fluoro-phenyl)-6-trifluoromethyl-pyridin-3-ylmethyl]-2-(3-fluoro-4-methylsulfonamido-phenyl)-propionamide], the values for the Ki (in assay [1] (setting [2]); on vanilloid receptor (VR1) (setting [3])) were 0.4 nM and 0.7 nM, respectively. For the same compound, the inhibition at 1 µM on VR1/TRPV1 receptor (@ 1 μM, ne = no effect) was 51%.
For `CC(C(=O)NCc1ccc(C(F)(F)F)nc1N1CCC2(CC1)CC(c1ccccc1)=NO2)c1ccc(NS(C)(=O)=O)c(F)c1` (stereo not drawn) [Example 252, 2-(3-fluoro-4-methylsulfonamido-phenyl)-N-[2-(3-phenyl-1-oxa-2,8-diaza-spiro[4.5]dec-2-en-8-yl)-6-trifluoromethyl-pyridin-3-ylmethyl]-propionamide], the Ki in assay [1] (setting [2]) came out at 17.9 nM; at vanilloid receptor (VR1) (setting [3]) it was 6.1 nM. The compound further displayed a half-maximal inhibitory concentration (IC50) at VR1/TRPV1 receptor (table 4) of 289 nM.
With `CC(C(=O)NCc1ccc(C(F)(F)F)nc1OC1CCCC1)c1ccc(NS(C)(=O)=O)c(F)c1` (stereo not drawn) [Example 21, N-((2-cyclopentyloxy-6-(trifluoromethyl)pyridin-3-yl)methyl)-2-(3-fluoro-4-(methylsulfonamido)phenyl)propanamide], the Ki was 1.3 nM in assay [1] (Table 2, displacement of capsaicin (100 nM), Cheng-Prusoff, read-out: Ki (rat)) and 0.9 nM at vanilloid receptor (VR1) (Table 2, displacement of capsaicin (100 nM), Cheng-Prusoff, read-out: Ki (human)). Further, the IC50 on VR1/TRPV1 receptor (Table 2) is 29 nM.
On to `CCCCN(CCCC)c1nc(C(F)(F)F)ccc1CNC(=O)C(C)c1ccc(NS(C)(=O)=O)c(F)c1` (stereo not drawn) [Example 183, N-(2-dibutylamino-6-trifluoromethyl-pyridin-3-ylmethyl)-2-(3-fluoro-4-methylsulfonamido-phenyl)-propionamide], for which the inhibitory constant (Ki) in assay [1] (setting [2]) stood at 0.7 nM; on vanilloid receptor (VR1) (setting [3]) it was 0.6 nM. On VR1/TRPV1 receptor (table 4), the IC50 is 10.5 nM.
For the compound `CC(C(=O)NCc1ccc(C(F)(F)F)nc1OCC1CCCCC1)c1ccc(NS(C)(=O)=O)c(F)c1` (stereo not drawn) [Example 270, N-(2-cyclohexylmethoxy-6-trifluoromethyl-pyridin-3-ylmethyl)-2-(3-fluoro-4-methylsulfonamido-phenyl)-propionamide], the inhibition constant (Ki) in assay [1] (setting [4]) amounted to 0.5 nM; on vanilloid receptor (VR1) (setting [3]), 0.7 nM. On VR1/TRPV1 receptor (table 4), inhibition was half-maximal at 19.7 nM (IC50).
On to `CC(C(=O)NCc1ccc(C(F)(F)F)nc1N1CCN(C2CCCCC2)CC1)c1ccc(NS(C)(=O)=O)c(F)c1` (stereo not drawn) [Example 260, N-[2-(4-cyclohexyl-piperazin-1-yl)-6-trifluoromethyl-pyridin-3-ylmethyl]-2-(3-fluoro-4-methylsulfonamido-phenyl)-propionamide], for which the inhibitory constant (Ki) in assay [1] (setting [2]) was 25.3 nM; on vanilloid receptor (VR1) (setting [3]), 21.6 nM. For the same compound, the inhibition at 1 µM on VR1/TRPV1 receptor (@ 1 μM, ne = no effect) was determined as 51%. Moreover, the inhibition at 10 µM at VR1/TRPV1 receptor turned out to be 66%.
With `CC(C(=O)NCc1ccc(C(F)(F)F)nc1N1CCN(c2ncccc2C(F)(F)F)CC1)c1ccc(NS(C)(=O)=O)c(F)c1` (stereo not drawn) [Example 213, 2-(3-fluoro-4-methylsulfonamido-phenyl)-N-{6-trifluoromethyl-2-[4-(3-trifluoromethyl-pyridin-2-yl)-piperazin-1-yl]-pyridin-3-ylmethyl}-propionamide], the Ki worked out at 2 nM in assay [1] (setting [2]) and 2.8 nM at vanilloid receptor (VR1) (setting [3]). Further, the “inhibition in percent, IC50 (human) after pH stimulus” value on VR1/TRPV1 receptor (@ 1 μM, ne = no effect) came to 37%. The inhibition at 10 µM on VR1/TRPV1 receptor worked out at 49%.
`CCCOc1nc(C(F)(F)F)ccc1CNC(=O)C(C)c1ccc(NS(C)(=O)=O)c(F)c1` (stereo not drawn) [Example 111, 2-(3-fluoro-4-methylsulfonamido-phenyl)-N-(2-propoxy-6-trifluoromethyl-pyridin-3-ylmethyl)-propionamide]: the Ki in assay [1] (setting [2]) is 3.5 nM; on vanilloid receptor (VR1) (setting [3]), 0.9 nM. On VR1/TRPV1 receptor (table 4), this compound returned an IC50 of 90.1 nM.
As for `CC(C(=O)NCc1ccc(C(F)(F)F)nc1OCc1ccc(C(C)(C)C)cc1)c1ccc(NS(C)(=O)=O)c(F)c1` (stereo not drawn) [Example 244, N-[2-(4-tert-butyl-benzyloxy)-6-trifluoromethyl-pyridin-3-ylmethyl]-2-(3-fluoro-4-methylsulfonamido-phenyl)-propionamide], the values for the Ki (in assay [1] (setting [4]); at vanilloid receptor (VR1) (setting [3])) were 1.1 nM and 2.1 nM, respectively. Moreover, the concentration for half-maximal inhibition (IC50) at VR1/TRPV1 receptor (table 4) is 182 nM.
Regarding `CC(C)COc1cc(C(C)(C)C)ccc1CNC(=O)C(C)c1ccc(NS(C)(=O)=O)c(F)c1` (stereo not drawn) [Example 133, N-(4-tert-butyl-2-isobutoxy-benzyl)-2-(3-fluoro-4-methylsulfonamido-phenyl)-propionamide], the inhibitory constant (Ki) was found to be 0.7 nM in assay [1] (setting [2]) and 2.1 nM at vanilloid receptor (VR1) (setting [3]). In addition, the inhibition at 1 µM on VR1/TRPV1 receptor (@ 1 μM, ne = no effect) stood at 62%.

As usually defined, the Ki is the equilibrium dissociation constant of an inhibitor or competing ligand from its target. The IC50 is the concentration that gives 50% inhibition. Higher therefore signals weaker potency in that assay. The inhibition is the share of the control response that was lost under treatment.

The record behind these values is US8710233B2 (Gruenenthal GmbH, priority 2005, dated 2014).
